Results from patent US9708314B2, “Heterocyclic amide compound” (NISSAN CHEMICAL INDUSTRIES, LTD., priority 2013, dated 2017).

How the values were obtained:
Format in all cases: in vivo
[1] = tested on: Echinochloa oryzacola Vasing.; test: Test Example 1: herbicidal activity, application before weed generation in submerged conditions; conditions: Seventeenth Table; for A: Echinochloa oryzicola Vasing. (herbicidal effect grade): Application herbicide amount 320 g/ha
Summary of the method: (§1)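 Pre-emergence application to water surface of submerged pots (4 cm depth, alluvial soil) on sowing day, with 2.5-leaf rice transplanted; emulsion diluted to g/ha rates. Grown in greenhouse at 25–30 °C; 0–5 herbicidal/crop-effect score after three weeks.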

Monochoria vaginalis = test: as above; conditions: Seventeenth Table; for C: Monochoria vaginalis (herbicidal effect grade): Application herbicide amount 320 g/ha
Summary of the method: as §1

Scirpus juncoides = test: as above; conditions: Seventeenth Table; for B: Scirpus juncoides (herbicidal effect grade): Application herbicide amount 320 g/ha
Summary of the method: as §1

Amaranthus retroflexus = test: Test Example 4: herbicidal effect by application to foliage (diluvial soil, plastic box); conditions: 320 g/ha; for herbicidal effect, N (Amaranthus retroflexus): application to foliage
Summary of the method: (§2)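 Plants were grown in sterilized diluvial soil in a greenhouse at 25-30° C for 14 days, then sprayed on stems and leaves with water-diluted emulsion formulation at set rates in g/ha. Weed control and crop injury were scored 3 weeks after treatment on a 0-5 herbicidal-ratio scale, from 0 (≤5%) to 5 (≥90%).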

Avena fatua = test: as above; conditions: 320 g/ha; for herbicidal effect, I (Avena fatua): application to foliage
Summary of the method: as §2

Veronica persica = test: as above; conditions: 320 g/ha; for herbicidal effect, R (Veronica persica): application to foliage
Summary of the method: as §2

Chenopodium album = test: as above; conditions: 320 g/ha; for herbicidal effect, O (Chenopodium album): application to foliage
Summary of the method: as §2

Alopecurus myosuroides = test: as above; conditions: 320 g/ha; for herbicidal effect, J (Alopecurus myosuroides): application to foliage
Summary of the method: as §2

Stellaria media = test: as above; conditions: 320 g/ha; for herbicidal effect, P (Stellaria media): application to foliage
Summary of the method: as §2

Setaria viridis = test: as above; conditions: 320 g/ha; for herbicidal effect, G (Setaria viridis): application to foliage
Summary of the method: as §2

Apera spica-venti. = test: as above; conditions: 320 g/ha; for herbicidal effect, L (Apera spica-venti.): application to foliage
Summary of the method: as §2

Digitaria ciliaris = test: as above; conditions: 320 g/ha; for herbicidal effect, F (Digitaria ciliaris): application to foliage
Summary of the method: as §2

[2] = tested on: Echinochloa crus-galli var. crus-galli; test: as above; conditions: 320 g/ha; for herbicidal effect, H (Echinochloa crus-galli var. crus-galli): application to foliage
Summary of the method: as §2

Abutilon theophrasti = test: as above; conditions: 320 g/ha; for herbicidal effect, M (Abutilon theophrasti): application to foliage
Summary of the method: as §2

Galium spurium = test: as above; conditions: 320 g/ha; for herbicidal effect, Q (Galium spurium): application to foliage
Summary of the method: as §2

Lolium multiflorum Lam. = test: as above; conditions: 320 g/ha; for herbicidal effect, K (Lolium multiflorum Lam.): application to foliage
Summary of the method: as §2

Glycine max = test: Test Example 4: effect on crop by application to foliage (diluvial soil, plastic box); conditions: 320 g/ha; for effect on crop, c (Glycine max): application to foliage
Summary of the method: as §2

Brassica campestris L. = test: as above; conditions: 320 g/ha; for effect on crop, g (Brassica campestris L.): application to foliage
Summary of the method: as §2

[3] = tested on: directly sowed Oryza sativa; test: as above; conditions: 320 g/ha; for effect on crop, d (directly sowed Oryza sativa): application to foliage
Summary of the method: as §2

[4] = tested on: Beta vulgaris ssp. vulgaris; test: as above; conditions: 320 g/ha; for effect on crop, f (Beta vulgaris ssp. vulgaris): application to foliage
Summary of the method: as §2

Triticum aestivum = test: as above; conditions: 320 g/ha; for effect on crop, e (Triticum aestivum): application to foliage
Summary of the method: as §2

Zea mays = test: as above; conditions: 320 g/ha; for effect on crop, b (Zea mays): application to foliage
Summary of the method: as §2

[5] = application herbicide amount 320 g/ha

Row | SMILES | A: Echinochloa oryzicola Vasing. (herbicidal effect grade) [1] | C: Monochoria vaginalis (herbicidal effect grade) (Monochoria vaginalis) | B: Scirpus juncoides (herbicidal effect grade) (Scirpus juncoides) | herbicidal effect, N (Amaranthus retroflexus) (Amaranthus retroflexus) | herbicidal effect, I (Avena fatua) (Avena fatua) | herbicidal effect, R (Veronica persica) (Veronica persica) | herbicidal effect, O (Chenopodium album) (Chenopodium album) | herbicidal effect, J (Alopecurus myosuroides) (Alopecurus myosuroides) | herbicidal effect, P (Stellaria media) (Stellaria media) | herbicidal effect, G (Setaria viridis) (Setaria viridis) | herbicidal effect, L (Apera spica-venti.) (Apera spica-venti.) | herbicidal effect, F (Digitaria ciliaris) (Digitaria ciliaris) | herbicidal effect, H (Echinochloa crus-galli var. crus-galli) [2] | herbicidal effect, M (Abutilon theophrasti) (Abutilon theophrasti) | herbicidal effect, Q (Galium spurium) (Galium spurium) | herbicidal effect, K (Lolium multiflorum Lam.) (Lolium multiflorum Lam.) | effect on crop, c (Glycine max) (Glycine max) | effect on crop, g (Brassica campestris L.) (Brassica campestris L.) | effect on crop, d (directly sowed Oryza sativa) [3] | effect on crop, f (Beta vulgaris ssp. vulgaris) [4] | other results
1 | COCCN(C)c1nnc2c(C(=O)Nc3nnnn3C)ccc(C(F)(F)F)n12 [2-079] | 5 (Herbicidal ratio of 90% or more (almost completely withered)) | 5 (Herbicidal ratio of 90% or more (almost completely withered)) | 5 (Herbicidal ratio of 90% or more (almost completely withered)) | 5 (Herbicidal ratio of 90% or more (almost completely withered)) | 3 (Herbicidal ratio of 40% or more and less than 70%) | 5 (Herbicidal ratio of 90% or more (almost completely withered)) | 5 (Herbicidal ratio of 90% or more (almost completely withered)) | 4 (Herbicidal ratio of 70% or more and less than 90%) | 5 (Herbicidal ratio of 90% or more (almost completely withered)) | 5 (Herbicidal ratio of 90% or more (almost completely withered)) | 5 (Herbicidal ratio of 90% or more (almost completely withered)) | 5 (Herbicidal ratio of 90% or more (almost completely withered)) | 5 (Herbicidal ratio of 90% or more (almost completely withered)) | 5 (Herbicidal ratio of 90% or more (almost completely withered)) | 4 (Herbicidal ratio of 70% or more and less than 90%) | 2 (Herbicidal ratio of 20% or more and less than 40%) | 2 (Herbicidal ratio of 20% or more and less than 40%) | 5 (Herbicidal ratio of 90% or more (almost completely withered)) | 4 (Herbicidal ratio of 70% or more and less than 90%) | 5 (Herbicidal ratio of 90% or more (almost completely withered)) | effect on crop, e (Triticum aestivum) (Triticum aestivum): 2 (Herbicidal ratio of 20% or more and less than 40%); effect on crop, b (Zea mays) (Zea mays): 5 (Herbicidal ratio of 90% or more (almost completely withered))
2 | C#CCSc1nnc2c(C(=O)Nc3nnnn3C)ccc(C(F)(F)F)n12 [2-103] |  |  |  | 5 (Herbicidal ratio of 90% or more (almost completely withered)) | 1 (Herbicidal ratio of 5% or more and less than 20%) | 4 (Herbicidal ratio of 70% or more and less than 90%) | 5 (Herbicidal ratio of 90% or more (almost completely withered)) | 0 (Herbicidal ratio of 5% or less (almost no effect)) | 5 (Herbicidal ratio of 90% or more (almost completely withered)) | 3 (Herbicidal ratio of 40% or more and less than 70%) | 2 (Herbicidal ratio of 20% or more and less than 40%) | 4 (Herbicidal ratio of 70% or more and less than 90%) | 5 (Herbicidal ratio of 90% or more (almost completely withered)) | 4 (Herbicidal ratio of 70% or more and less than 90%) | 4 (Herbicidal ratio of 70% or more and less than 90%) | 1 (Herbicidal ratio of 5% or more and less than 20%) | 0 (Herbicidal ratio of 5% or less (almost no effect)) | 3 (Herbicidal ratio of 40% or more and less than 70%) | 4 (Herbicidal ratio of 70% or more and less than 90%) | 5 (Herbicidal ratio of 90% or more (almost completely withered)) | A (Echinochloa oryzicola Vasing.) herbicidal ratio grade [1, 5]: 5 (Herbicidal ratio of 90% or more (almost completely withered)); C (Monochoria vaginalis) herbicidal ratio grade (Monochoria vaginalis; [5]): 5 (Herbicidal ratio of 90% or more (almost completely withered)); B (Scirpus juncoides) herbicidal ratio grade (Scirpus juncoides; [5]): 4 (Herbicidal ratio of 70% or more and less than 90%); effect on crop, e (Triticum aestivum) (Triticum aestivum): 0 (Herbicidal ratio of 5% or less (almost no effect)); effect on crop, b (Zea mays) (Zea mays): 2 (Herbicidal ratio of 20% or more and less than 40%)
3 | COc1cccc(-c2nnc3c(C(=O)Nc4nnnn4C)ccc(C(F)(F)F)n23)c1 [2-044] | 5 (Herbicidal ratio of 90% or more (almost completely withered)) | 5 (Herbicidal ratio of 90% or more (almost completely withered)) | 5 (Herbicidal ratio of 90% or more (almost completely withered)) |  |  |  |  |  |  |  |  |  |  |  |  |  |  |  |  |  | N (Amaranthus retroflexus) herbicidal effect grade (Amaranthus retroflexus; foliage application): 5 (Herbicidal ratio of 90% or more (almost completely withered)); I (Avena fatua) herbicidal effect grade (Avena fatua; foliage application): 2 (Herbicidal ratio of 20% or more and less than 40%); R (Veronica persica) herbicidal effect grade (Veronica persica; foliage application): 5 (Herbicidal ratio of 90% or more (almost completely withered)); O (Chenopodium album) herbicidal effect grade (Chenopodium album; foliage application): 5 (Herbicidal ratio of 90% or more (almost completely withered)); J (Alopecurus myosuroides) herbicidal effect grade (Alopecurus myosuroides; foliage application): 2 (Herbicidal ratio of 20% or more and less than 40%); P (Stellaria media) herbicidal effect grade (Stellaria media; foliage application): 4 (Herbicidal ratio of 70% or more and less than 90%); G (Setaria viridis) herbicidal effect grade (Setaria viridis; foliage application): 4 (Herbicidal ratio of 70% or more and less than 90%); L (Apera spica-venti.) herbicidal effect grade (Apera spica-venti.; foliage application): 3 (Herbicidal ratio of 40% or more and less than 70%); F (Digitaria ciliaris) herbicidal effect grade (Digitaria ciliaris; foliage application): 5 (Herbicidal ratio of 90% or more (almost completely withered)); H (Echinochloa crus-galli var. crus-galli) herbicidal effect grade ([2]; foliage application): 5 (Herbicidal ratio of 90% or more (almost completely withered)); M (Abutilon theophrasti) herbicidal effect grade (Abutilon theophrasti; foliage application): 5 (Herbicidal ratio of 90% or more (almost completely withered)); Q (Galium spurium) herbicidal effect grade (Galium spurium; foliage application): 3 (Herbicidal ratio of 40% or more and less than 70%); K (Lolium multiflorum Lam.) herbicidal effect grade (Lolium multiflorum Lam.; foliage application): 2 (Herbicidal ratio of 20% or more and less than 40%); c (Glycine max) effect on crop grade (Glycine max; foliage application): 2 (Herbicidal ratio of 20% or more and less than 40%); g (Brassica campestris L.) effect on crop grade (Brassica campestris L.; foliage application): 3 (Herbicidal ratio of 40% or more and less than 70%); d (directly sowed Oryza sativa) effect on crop grade ([3]; foliage application): 4 (Herbicidal ratio of 70% or more and less than 90%); f (Beta vulgaris ssp. vulgaris) effect on crop grade ([4]; foliage application): 5 (Herbicidal ratio of 90% or more (almost completely withered)); e (Triticum aestivum) effect on crop grade (Triticum aestivum; foliage application): 1 (Herbicidal ratio of 5% or more and less than 20%); b (Zea mays) effect on crop grade (Zea mays; foliage application): 3 (Herbicidal ratio of 40% or more and less than 70%)
